Reference: article PMC9607427, “Novel 7-Chloro-(4-thioalkylquinoline) Derivatives: Synthesis and Antiproliferative Activity through Inducing Apoptosis and DNA/RNA Damage” (Pharmaceuticals, 2022)

How the values were obtained:
[1] = Cytotoxic MTS assay, whole panel of tested cell lines; assay type: cell-based, human; details: human; MTS, 72 h of incubation, all tested cell lines; read-out: Cytotoxic activity IC50, tested cell lines (considered inactive)
Method: (§1) In vitro cytotoxic activity of final compounds 5–82 was evaluated after 3 days of incubation against eight cell lines derived from human solid tumors including lung (A549 cells) and colon (HCT116 and HCT116p53−/−) carcinomas, as well as leukemia cell lines (CCRF-CEM, CEM-DNR, K562, and K562-TAX) and osteosarcoma (U2OS cells). For comparison, non-malignant BJ and MRC-5 fibroblasts, and BJLD and MCR-5LD fibroblasts doxorubicin-resistant cell lines were used. Concentrations inhibiting the cell growth by 50% (IC50) were determined using a quantitative metabolic staining with 3-(4,5-dimethylthiazol-2yl)-5-(3-carboxymethoxyphenyl)-2-(4-sulfophenyl)-2H-tetrazolium (MTS) and are summarized in (Table 3).
(§2) Cytotoxic activity was determined by MTS assay following 72 h of incubation. IC50 is the lowest concentration that kills 50% of cells. The standard deviation in cytotoxicity assays is typically up to 20% of the average value. […] The tested cell lines: A549 (lung adenocarcinoma), BJ (noncancerous human fibroblasts from foreskin), BJLD (human lung fibroblast doxorubicin-resistant), CCRF-CEM (childhood T cell acute lymphoblastic leukemia), a daunorubicin-resistant subline of CCRF-CEM cells (CEM-DNR bulk), HCT116 (colorectal carcinoma), HCT116p53−/− (HCT116 with deleted p53 gene), K562 (chronic myeloid leukemia), K562-TAX (chronic myeloid leukemia paclitaxel-resistant subline), MRC-5 (noncancerous human lung fibroblasts), MRC-5LD (noncancerous human lung fibroblasts doxorubicin-resistant), and U2OS (osteosarcoma).
(§3) All cell lines were purchased from the American Tissue Culture Collection (ATCC). The A549 cell line is lung adenocarcinoma. MRC-5 and BJ cell lines were used as a non-tumor control and represent human fibroblasts. (MRC-5 LD and BJLD) are doxorubicin-resistant human lung fibroblast cell lines. The CCRF-CEM line is derived from T lymphoblastic leukemia, evincing high chemosensitivity, whereas K562 represent cells from an […] patient sample with bcr-abl translocation. The daunorubicin-resistant subline of CCRF-CEM cells (CEM-DNR bulk) and paclitaxel-resistant subline K562-TAX were selected in our laboratory by the cultivation of maternal cell lines in increasing concentrations of daunorubicin or paclitaxel, respectively. The CEM-DNR bulk cells overexpress MRP-1 and P-glycoprotein protein, whereas K562-TAX cells overexpress P-glycoprotein only. Both proteins belong to the family of ABC transporters and are involved in the primary and/or acquired multidrug-resistance phenomenon. The U2OS cell line is derived from osteosarcoma, HCT116 is a colorectal tumor cell line and its p53 gene knock-down counterpart (HCT116p53−/−, Horizon Discovery Ltd., Cambridge, UK) is a model of human cancers with p53 mutation frequently associated with poor prognosis. The cells were maintained in nunc/corning 80 cm^2 plastic tissue culture flasks and cultured in a cell culture medium according to ATCC or Horizon recommendations (DMEM/RPMI 1640 with 5 g/L glucose, 2 mM glutamine, 100 U/mL penicillin, […], 10% fetal calf serum, and NaHCO3).
(§4) The activity of compounds was determined using a standard 3-(4,5-dimethylthiazol-2-yl)-5-(3-carboxymethoxyphenyl)-2-(4-sulfophenyl)-2H-tetrazolium (MTS) and it was performed at the Institute of Molecular and Translational Medicine by a robotic platform (High-ResBiosolutions). Cell suspensions were prepared and diluted according to the particular cell type and the expected target cell density (25,000–35,000 cells/mL based on cell growth characteristics). Cells were added by automatic pipettor (30 µL) into 384-well microtiter plates. All tested compounds were dissolved in 100% DMSO and four-fold dilutions of the intended test concentration were added in 0.15 µL aliquots at time zero to the microtiter plate wells by the echo acoustic non-contact liquid handler Echo550 (Labcyte). […]

U2OS (osteosarcoma) = assay: Cytotoxic MTS assay, U2OS; assay type: cell-based, human
Method: as §1, §2, §3, §4

[2] = tested on: eight human cancer and 4 non-tumor cell lines; assay: Cytotoxic MTS assay, whole panel of tested cell lines; assay type: cell-based; details: for Selectivity for cancer cells compared against BJ and MRC-5 cells: colon, leukemia, lung and osteosarcoma cancer cell lines vs BJ and MRC-5
Method: as §1, §2, §3, §4

[3] = tested on: HCT116p53−/− (HCT116 with deleted p53 gene); assay: Cytotoxic MTS assay, HCT116p53−/−; assay type: cell-based, human
Method: as §1, §2, §3, §4

[4] = tested on: BJLD (human lung fibroblast doxorubicin-resistant); assay: Cytotoxic MTS assay, BJLD; assay type: cell-based
Method: as §1, §2, §3, §4

[5] = tested on: A549 (lung adenocarcinoma); assay: Cytotoxic MTS assay, A549; assay type: cell-based, human
Method: as §1, §2, §3, §4

[6] = tested on: MRC-5 (noncancerous human lung fibroblasts); assay: Cytotoxic MTS assay, MRC-5; assay type: cell-based
Method: as §1, §2, §3, §4

[7] = tested on: BJ (noncancerous human fibroblasts from foreskin); assay: Cytotoxic MTS assay, BJ; assay type: cell-based
Method: as §1, §2, §3, §4

[8] = tested on: K562 (chronic myeloid leukemia); assay: Cytotoxic MTS assay, K562; assay type: cell-based, human
Method: as §1, §2, §3, §4

[9] = tested on: CEM-DNR bulk (daunorubicin-resistant subline of CCRF-CEM cells); assay: Cytotoxic MTS assay, CEM-DNR; assay type: cell-based, human
Method: as §1, §2, §3, §4

[10] = tested on: CCRF-CEM (childhood T cell acute lymphoblastic leukemia); assay: Cytotoxic MTS assay, CCRF-CEM; assay type: cell-based, human
Method: as §1, §2, §3, §4

[11] = tested on: HCT116 (colorectal carcinoma); assay: Cytotoxic MTS assay, HCT116; assay type: cell-based, human
Method: as §1, §2, §3, §4

[12] = tested on: K562-TAX (chronic myeloid leukemia paclitaxel-resistant subline); assay: Cytotoxic MTS assay, K562-TAX; assay type: cell-based, human
Method: as §1, §2, §3, §4

[13] = tested on: MRC-5LD (noncancerous human lung fibroblasts doxorubicin-resistant); assay: Cytotoxic MTS assay, MRC-5LD; assay type: cell-based
Method: as §1, §2, §3, §4

Structure (SMILES)	melting point [°C]	IC50 at 72 h [1] [µM]	IC50 (U2OS (osteosarcoma)) [µM]	Selectivity for leukemic and colorectal cancer cells compared to MRC-5 ([2]; leukemic and colorectal (with and without p53 deletion) cancer cells vs MRC-5)	IC50 [3] [µM]	IC50 [4] [µM]	IC50 [5] [µM]	IC50 [6] [µM]	IC50 [7] [µM]	IC50 [8] [µM]	IC50 [9] [µM]	IC50 [10] [µM]	IC50 [11] [µM]	IC50 [12] [µM]	IC50 [13] [µM]	Selectivity for cancer cells compared against BJ and MRC-5 cells [2]	Cancer cell selectivity for A549 cells compared to BJ and MRC-5 cell lines ([5]; A549 vs BJ and MRC-5)
O=C(OCC[S+]([O-])c1ccnc2cc(Cl)ccc12)c1ccc(C(F)(F)F)cc1 (stereo not shown) [Compound 51, 2-[(7-Chloroquinolin-4-yl)sulfinyl]ethyl-4-(trifluoromethyl)benzoate]	148 to 150	> 50															
CC(C)(C)c1ccc(C(=O)OCC[S+]([O-])c2ccnc3cc(Cl)ccc23)cc1 (stereo not shown) [Compound 52, 2-[(7-Chloroquinolin-4-yl)sulfinyl]ethyl-4-tert-butylbenzoate]	106	> 50															
COc1cc(OC)c(C(=O)OCCC[S+]([O-])c2ccnc3cc(Cl)ccc23)cc1OC (stereo not shown) [Compound 56, 3-[(7-Chloroquinolin-4-yl)sulfinyl]propyl-2,4,5-trimethoxybenzoate]		> 50															
COc1ccccc1C(=O)OCCC[S+]([O-])c1ccnc2cc(Cl)ccc12 (stereo not shown) [Compound 58, 3-[(7-Chloroquinolin-4-yl)sulfinyl]propyl-2-methoxybenzoate]		> 50															
COc1ccc(C(=O)OCCCS(=O)(=O)c2cc[n+]([O-])c3cc(Cl)ccc23)cc1 [Compound 73, 3-[(N-Oxide 7-chloroquinolin-4-yl)sulfonyl]propyl-4-methoxybenzoate]			5.75	good selectivity	2.24	10.7	5.44	21.9	12.4	2.2	4.7	2.18	1.99	4.62	19		
COc1ccc(C(=O)OCCCS(=O)(=O)c2cc[n+]([O-])c3cc(Cl)ccc23)cc1[N+](=O)[O-] [Compound 79, 3-[(N-Oxide 7-chloroquinolin-4-yl)sulfonyl]propyl-4-methoxy-3-nitrobenzoate]			4.95		4.98	12	5.79	20.6	19	6.09	4.49	1.05	3.81	3.73	13.8	good selectivity	moderate cancer cell selectivity
Cc1cc(C)cc(C(=O)OCCCS(=O)(=O)c2cc[n+]([O-])c3cc(Cl)ccc23)c1 [Compound 81, 3-[(N-Oxide 7-chloroquinolin-4-yl)sulfonyl]propyl-3,5-dimethylbenzoate]			5.67		4.76	25.4	5.32	46.7	32.5	3.78	6.63	1.2	3.46	6.26	21.9	most pronounced selectivity	
